Reference: patent publication US7141251B2, “Pharmacologically active strong acid solutions” (Cytorex Biosciences, inc., priority 2001, dated 2006)

Assays:
[1] = Example 27: patient with hypertension; conditions: 180/110 without medication
[2] = in water; cited from earlier work

| Compound | blood pressure [1] | Grade of Ionization (α) [2] |
| --- | --- | --- |
| CC(C)NCC(O)COc1ccc(CC(N)=O)cc1 (stereo not drawn) [Atenolol] | 150/90 | – |
| O=C(O)C(=O)O [Formulation H2C2O4, oxalic acid] | – | α = 1 |
| O=C(O)CC(O)(CC(=O)O)C(=O)O [Formulation H8C6O7, citric acid] | – | α < 1 |
